Values of other authors, collected in patent US20200113824A1, “DISPENSING CAP CONTAINING A SOLUBILISATE OF A […] ACTIVE AGENT OR DIETARY SUPPLEMENT” (priority 2017, published 2020).

What was measured:
human CYP3A4 = human CYP3A4 (Homo sapiens, UniProt P08684)
P-glycoprotein = P-glycoprotein (Homo sapiens, UniProt P08183)
murine gut microbiota = details: promoting obesity and inflammatory bowel diseases

human CYP3A4, sequence (P08684 whole entry): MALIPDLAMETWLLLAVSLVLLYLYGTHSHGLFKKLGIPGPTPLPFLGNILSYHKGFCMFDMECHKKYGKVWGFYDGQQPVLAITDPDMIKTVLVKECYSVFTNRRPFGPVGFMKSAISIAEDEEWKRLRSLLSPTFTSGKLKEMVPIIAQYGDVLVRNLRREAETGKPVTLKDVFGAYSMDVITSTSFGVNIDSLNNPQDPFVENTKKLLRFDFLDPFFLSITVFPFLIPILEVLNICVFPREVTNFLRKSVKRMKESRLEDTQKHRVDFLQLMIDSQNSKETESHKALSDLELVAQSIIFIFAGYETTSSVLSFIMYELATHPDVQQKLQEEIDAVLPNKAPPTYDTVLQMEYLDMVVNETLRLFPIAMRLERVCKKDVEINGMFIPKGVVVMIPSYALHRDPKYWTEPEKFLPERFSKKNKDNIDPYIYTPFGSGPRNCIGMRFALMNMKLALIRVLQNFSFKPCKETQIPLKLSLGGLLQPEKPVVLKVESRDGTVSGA
P-glycoprotein, sequence (P08183 whole entry): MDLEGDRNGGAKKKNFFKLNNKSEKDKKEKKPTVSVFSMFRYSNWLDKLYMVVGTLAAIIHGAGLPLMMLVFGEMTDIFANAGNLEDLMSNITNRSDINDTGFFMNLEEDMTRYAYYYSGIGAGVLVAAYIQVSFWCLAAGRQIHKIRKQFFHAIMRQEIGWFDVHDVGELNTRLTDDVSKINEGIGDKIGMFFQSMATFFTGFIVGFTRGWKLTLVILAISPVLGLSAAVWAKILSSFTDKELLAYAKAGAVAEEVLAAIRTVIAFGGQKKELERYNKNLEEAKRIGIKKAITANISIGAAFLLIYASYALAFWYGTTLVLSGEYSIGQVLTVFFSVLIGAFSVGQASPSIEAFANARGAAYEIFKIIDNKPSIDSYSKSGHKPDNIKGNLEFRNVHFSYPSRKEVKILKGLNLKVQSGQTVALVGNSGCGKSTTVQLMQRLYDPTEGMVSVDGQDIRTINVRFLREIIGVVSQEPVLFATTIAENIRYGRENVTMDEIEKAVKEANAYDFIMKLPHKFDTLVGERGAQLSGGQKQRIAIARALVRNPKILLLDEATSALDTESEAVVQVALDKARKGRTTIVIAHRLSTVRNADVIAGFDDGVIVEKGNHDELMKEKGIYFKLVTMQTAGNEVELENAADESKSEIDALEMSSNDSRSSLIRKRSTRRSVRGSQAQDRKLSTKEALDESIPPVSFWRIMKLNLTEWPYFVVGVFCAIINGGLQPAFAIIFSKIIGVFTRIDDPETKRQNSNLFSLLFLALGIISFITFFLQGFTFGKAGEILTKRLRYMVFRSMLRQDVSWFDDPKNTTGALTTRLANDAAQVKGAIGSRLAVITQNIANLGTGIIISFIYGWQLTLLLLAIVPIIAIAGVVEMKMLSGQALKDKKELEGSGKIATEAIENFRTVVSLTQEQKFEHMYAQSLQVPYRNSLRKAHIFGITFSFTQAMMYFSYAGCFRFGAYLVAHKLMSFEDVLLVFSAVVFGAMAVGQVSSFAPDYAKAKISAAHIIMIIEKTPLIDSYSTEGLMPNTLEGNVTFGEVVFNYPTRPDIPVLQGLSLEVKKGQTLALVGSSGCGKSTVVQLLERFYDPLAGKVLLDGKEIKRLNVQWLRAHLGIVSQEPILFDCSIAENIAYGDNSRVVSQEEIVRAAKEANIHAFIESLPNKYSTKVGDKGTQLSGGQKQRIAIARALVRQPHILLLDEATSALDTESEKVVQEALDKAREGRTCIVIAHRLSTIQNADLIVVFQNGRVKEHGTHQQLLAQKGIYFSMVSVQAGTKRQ

O=C(C=CC=Cc1ccc2c(c1)OCO2)N1CCCCC1 [Piperine, 1-[5-(1,3-benzodioxol-5-yl)-1-oxo-2,4-pentadienyl]piperidine]
inhibition of human CYP3A4 (human CYP3A4): inhibit
inhibition of P-glycoprotein (P-glycoprotein): inhibit

Polysorbate-80
effects on murine gut microbiota (murine gut microbiota): detrimental effects
